Patent US20100119599A1 (ARCHER PHARMACEUTICALS, INC., priority 2006, published 2010)

What was measured:
[1] = system: Aβ1-40; experiment: Measurement of Aβ1-40 in culture medium of 7W WT APP751 CHO cells by ELISA; type: cell-based, Chinese hamster; settings: for Aβ1-40 (% of control): CHO cells that overexpress APP751, zero = below the detection limit of the assay; for activity at 5 µM: Cricetulus griseus, Table 1, 5 μM test compound, CHO cells stably transfected with human APP751, culture medium, ELISA, control DMSO, 0 = no detectable amount
[2] = system: Aβ1-42; experiment: Measurement of Aβ1-42 in culture medium of 7W WT APP751 CHO cells by ELISA; type: cell-based, Chinese hamster; settings: for Aβ1-42 (% of control): CHO cells that overexpress APP751, zero = below the detection limit of the assay; for activity at 5 µM: Cricetulus griseus, Table 1, 5 μM test compound, CHO cells stably transfected with human APP751, culture medium, ELISA, control DMSO, 0 = no detectable amount, read-out: Aβ1-42 (% of control)
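Further: 5 µM test compound but RI-coded compounds at 10 µM for 24 hours.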

SMILES | Aβ1-40 (% of control) [1] | Aβ1-42 (% of control) [2] | activity at 5 µM [1] [%] | activity at 5 µM [2] [%]
COC(=O)C1=CN(C23CC4CC(CC(C4)C2)C3)C=C(C(=O)OC)C1c1cccc([N+](=O)[O-])c1 [ST045329, methyl 1-adamantanyl-5-(methoxycarbonyl)-4-(3-nitrophenyl)-1,4-dihydropyridine-3-carboxylate] | 82.6 % of control | 68.52 % of control |  | 
COC(=O)C1=C(C)NC(C)=C(C(=O)OC)C1c1cc(-c2ccc(Cl)cc2Cl)co1 [ST045410, methyl 4-[4-(2,4-dichlorophenyl)(2-furyl)]-5-(methoxycarbonyl)-2,6-dimethyl-1,4-dihydropyridine-3-carboxylate] | 75.13 % of control | 69.44 % of control |  | 
CC1(C)CC(=O)C2=C(C1)N(c1cc(C(F)(F)F)ccc1Cl)C(N)=C(C#N)C2c1ccc(Br)s1 (centres unmarked) [ST046868, 2-amino-4-(5-bromo(2-thienyl))-1-[2-chloro-5-(trifluoromethyl)phenyl]-7,7-dimethyl-5-oxo-1,4,6,7,8-pentahydroquinoline-3-carbonitrile] |  |  | 29.8 | 84
CC1(C)CC(=O)C2=C(C1)N(Cc1ccccc1)C(N)=C(C#N)C2c1ccc(Cl)cc1 (centres unmarked) [ST047623, 2-amino-4-(4-chlorophenyl)-7,7-dimethyl-5-oxo-1-benzyl-1,4,6,7,8-pentahydroquinoline-3-carbonitrile] |  |  | 95.4 | 44.4
CC(=O)C1=C(C)NC(SCC(=O)Nc2c(C)cc(Br)cc2Br)=C(C#N)C1c1cc(C)cs1 (centres unmarked) [ST048506, 2-[5-acetyl-3-cyano-6-methyl-4-(4-methyl(2-thienyl))(2-1,4-dihydropyridylthio)]-N-(2,4-dibromo-6-methylphenyl)acetamide] | 91.16 % of control | 65.58 % of control |  | 
N#CC1=C(SCC(=O)Nc2ccc(Br)cc2)NC2=C(C(=O)CCC2)C1c1ccccc1Cl (centres unmarked) [ST050407, N-(4-bromophenyl)-2-[4-(2-chlorophenyl)-3-cyano-5-oxo(2-1,4,6,7,8-pentahydroquinolylthio)]acetamide] |  |  | 56.7 | 44.3
CC1=C(C(=O)OC(C)(C)C)C(c2ccc(Cl)cc2)C(C#N)=C(SCC(=O)Nc2cccc(C)c2C)N1 (centres unmarked) [ST050424, tert-butyl 6-{[N-(2,3-dimethylphenyl)carbamoyl]methylthio}-4-(4-chlorophenyl)-5-cyano-2-methyl-1,4-dihydropyridine-3-carboxylate] | 41.21 % of control | 52.29 % of control |  | 
CC1=C(C(=O)OC(C)(C)C)C(c2ccc(Cl)cc2)C(C#N)=C(SCC(=O)Nc2cc(C)ccc2C)N1 (centres unmarked) [ST050428, tert-butyl 6-{[N-(2,5-dimethylphenyl)carbamoyl]methylthio}-4-(4-chlorophenyl)-5-cyano-2-methyl-1,4-dihydropyridine-3-carboxylate] | 95.74 % of control | 65.47 % of control |  | 
CC1=C(C(=O)Nc2ccccc2)C(c2cccs2)C(C#N)=C(SCC(=O)Nc2ccccc2C)N1 (centres unmarked) [ST050837, 2-[3-cyano-6-methyl-5-(N-phenylcarbamoyl)-4-(2-thienyl)(2-1,4-dihydropyridylthio)]-N-(2-methylphenyl)acetamide] | 95.44 % of control | 41.29 % of control |  | 
CCOc1ccc(NC(=O)CSC2=C(C#N)C(c3cccs3)C(C(=O)Nc3ccccc3C)=C(C)N2)cc1 (centres unmarked) [ST050838, 2-{3-cyano-6-methyl-5-[N-(2-methylphenyl)carbamoyl]-4-(2-thienyl)(2-1,4-dihydropyridylthio)}-N-(4-ethoxyphenyl)acetamide] | 70.76 % of control | 56.66 % of control |  | 
